Data reported in ChEMBL document CHEMBL1129258, “Synthesis and structure-activity relationships of 2-pyridones: a novel series of potent DNA gyrase inhibitors as antibacterial agents” (J Med Chem, 1996).
In brackets after ≈: the same amount, converted by molar mass.

Legend:
[1] = target: T1, DNA gyrase (Escherichia coli) (UniProt P0AES6+P0AES4); experiment: In vitro antibacterial activity against gram-negative organism […] ATCC 13048; assay type: functional; settings: Enterobacter aerogenes
[2] = target: T1, DNA gyrase (Escherichia coli); settings: Escherichia coli K-12
Description: Concentration which causes 50% of the gyrase (Escherichia coli H560)-mediated maximal DNA cleavage.

[3] = target: T1, DNA gyrase (Escherichia coli); experiment: In vitro antibacterial activity against gram-negative organism Klebsiella pneumoniae ATCC 8045; assay type: functional
Enterococcus faecalis = experiment: Inhibitory activity against enterococcus faecalis Van B; assay type: functional
[4] = target: T1, DNA gyrase (Escherichia coli); experiment: In vitro antibacterial activity against gram-positive organism Enterococcus faecium ATCC 8043; assay type: functional
Enterococcus faecium = experiment: Inhibitory activity against enterococcus faecium Van A; assay type: functional
[5] = target: T2, DNA gyrase (Staphylococcus aureus) (UniProt P0A0K8+P20831); experiment: In vitro antibacterial activity against gram-positive organism Staphylococcus aureus ATCC 6538p; assay type: functional
[6] = target: T2, DNA gyrase (Staphylococcus aureus); experiment: In vitro antibacterial activity against gram-positive organism Staphylococcus aureus NCTC-10649M; assay type: functional
Streptococcus pyogenes = experiment: In vitro antibacterial activity against gram-positive organism Streptococcus pyogenes EES61; assay type: functional
[7] = target: T2, DNA gyrase (Staphylococcus aureus); experiment: In vitro antibacterial activity against gram-positive organism Staphylococcus aureus 1775; assay type: functional
[8] = target: T1, DNA gyrase (Escherichia coli); experiment: In vitro antibacterial activity against gram-positive organism Streptococcus bovis A-5169; assay type: functional; settings: Streptococcus equinus
[9] = target: T1, DNA gyrase (Escherichia coli); experiment: In vitro antibacterial activity against gram-negative organism Prov. stuartii CMX-640; assay type: functional; settings: Providencia stuartii
[10] = In vitro antibacterial activity against gram-negative organism Pseudomonas aeruginosa DPHD-2862; assay type: functional
[11] = target: T1, DNA gyrase (Escherichia coli); experiment: In vitro antibacterial against gram-negative organism Escherichia coli JUHL; assay type: functional; settings: Escherichia coli K-12
[12] = In vitro antibacterial activity against gram-negative organism Pseudomonas aeruginosa 5007; assay type: functional; settings: Pseudomonas aeruginosa; read-out: MIC
Streptococcus pneumoniae [13] = experiment: (§1) In vivo efficacy against Strep. administration; assay type: functional
Streptococcus pneumoniae [14] = experiment: as §1; assay type: functional; remark: listed apart in the source
[15] = target: T2, DNA gyrase (Staphylococcus aureus); experiment: In vivo efficacy against Staphylococcus aureus NCTC-10649M after oral administration; assay type: functional, organism-based
[16] = In vivo efficacy against Pseudomonas aeruginosa 5007 after subcutaneous administration; assay type: functional; settings: Pseudomonas aeruginosa, sc; read-out: ED50
[17] = Maximum plasma concentration in rats after an oral dose of 5 mg/kg; settings: rat
[18] = target: T1, DNA gyrase (Escherichia coli); experiment: In vivo efficacy against Escherichia coli JUHL after oral administration; assay type: functional, organism-based; settings: Escherichia coli K-12
Pseudomonas aeruginosa = experiment: In vivo efficacy against Pseudomonas aeruginosa 5007 following p.o. administration.
[19] = target: T1, DNA gyrase (Escherichia coli); experiment: In vivo efficacy against Escherichia coli JUHL by subcutaneous administration; assay type: functional, organism-based; settings: Escherichia coli K-12
in vivo [20] = settings: rat, po, 5 mg/kg
Description: Oral bioavailability in rat (dose 5 mg/kg)

[21] = target: T2, DNA gyrase (Staphylococcus aureus); experiment: In vivo efficacy against Staphylococcus aureus NCTC-10649M after subcutaneous administration; assay type: functional, organism-based
in vivo [22] = settings: rat, plasma, po, 5 mg/kg
Streptococcus pneumoniae [23] = experiment: In vivo efficacy against Strep. administered; assay type: functional
[24] = Streptococcus pyogenes, read-out: MIC
[25] = Pseudomonas aeruginosa, read-out: MIC
[26] = Streptococcus pneumoniae, read-out: ED50

MIC [1]	MIC [3]	MIC (Enterococcus faecalis)	MIC [4]	MIC [5]	MIC [6]	MIC (Streptococcus pyogenes; [24])	MIC [7]	MIC [8]	MIC [9]	MIC [10, 25]	MIC [11]	MIC [12]	ED50 [15]	ED50 [18]	ED50 (Pseudomonas aeruginosa)	ED50 [19]	ED50 [21]	Structure (SMILES)	CC50 [2]	ED50 [16]	further results
0.39 µg/mL (≈ 0.986 µM)	0.05 µg/mL (≈ 0.126 µM)	0.03 µg/mL (≈ 0.0759 µM)	0.1 µg/mL (≈ 0.253 µM)	0.02 µg/mL (≈ 0.0506 µM)	0.01 µg/mL (≈ 0.0253 µM)	0.1 µg/mL (≈ 0.253 µM)	0.39 µg/mL (≈ 0.986 µM)	0.2 µg/mL (≈ 0.506 µM)	1.56 µg/mL (≈ 3.95 µM)	25 µg/mL (≈ 63.2 µM)	0.1 µg/mL (≈ 0.253 µM)	1.56 µg/mL (≈ 3.95 µM)						Cc1c(N2CCC(n3cccc3)C2)c(F)cn2c(=O)c(C(=O)O)cc(C3CC3)c12 (configuration not stated)	0.04 µg/mL (≈ 0.101 µM)		MIC (Enterococcus faecium): 0.5 µg/mL (≈ 1.26 µM)
		0.06 µg/mL (≈ 0.156 µM)																Cc1c(N2C[C@@H]3CCCN[C@@H]3C2)c(F)cn2c(=O)c(C(=O)O)cc(C3CC3)c12 (stereo in doubt; 45n)			MIC (Enterococcus faecium): 0.5 µg/mL (≈ 1.3 µM); ED50 (Streptococcus pneumoniae [13]): 4.4 mg/kg; ED50 (Streptococcus pneumoniae [14]): 12.5 mg/kg; MIC (Streptococcus pyogenes): 0.01 µg/mL (≈ 0.0259 µM); MIC [10]: 3.1 µg/mL (≈ 8.04 µM)
0.005 µg/mL (≈ 0.0145 µM)	0.005 µg/mL (≈ 0.0145 µM)	0.03 µg/mL (≈ 0.0869 µM)	0.02 µg/mL (≈ 0.0579 µM)	0.01 µg/mL (≈ 0.029 µM)	0.01 µg/mL (≈ 0.029 µM)	0.02 µg/mL (≈ 0.0579 µM)	0.78 µg/mL (≈ 2.26 µM)	0.02 µg/mL (≈ 0.0579 µM)	0.2 µg/mL (≈ 0.579 µM)	0.78 µg/mL (≈ 2.26 µM)	0.002 µg/mL (≈ 0.00579 µM)	0.05 µg/mL (≈ 0.145 µM)	3.4 mg/kg	0.6 mg/kg	14.5 mg/kg	0.1 mg/kg	0.6 mg/kg	Cc1c(N2CC[C@H](N)C2)c(F)cn2c(=O)c(C(=O)O)cc(C3CC3)c12 [ABT-719]	0.03 µg/mL (≈ 0.0869 µM)	1.9 mg/kg	MIC (Enterococcus faecium): 0.25 µg/mL (≈ 0.724 µM); ED50 (Streptococcus pneumoniae [13]): 1.6 mg/kg; ED50 (Streptococcus pneumoniae [14]; [26]): 5.3 mg/kg; Cmax [17]: 270 ng/mL; bioavailability (in vivo [20]): 32%; half-life (in vivo [22]): 1.2 h
0.01 µg/mL (≈ 0.029 µM)	0.005 µg/mL (≈ 0.0145 µM)		0.05 µg/mL (≈ 0.145 µM)	0.01 µg/mL (≈ 0.029 µM)	0.02 µg/mL (≈ 0.0579 µM)	0.05 µg/mL (≈ 0.145 µM)	1.56 µg/mL (≈ 4.52 µM)	0.1 µg/mL (≈ 0.29 µM)	0.2 µg/mL (≈ 0.579 µM)	1.56 µg/mL (≈ 4.52 µM)	0.005 µg/mL (≈ 0.0145 µM)	0.05 µg/mL (≈ 0.145 µM)	< 3.1 mg/kg	1 mg/kg	6.2 mg/kg	0.3 mg/kg	0.9 mg/kg	Cc1c(N2CC[C@@H](N)C2)c(F)cn2c(=O)c(C(=O)O)cc(C3CC3)c12	0.15 µg/mL (≈ 0.434 µM)	2.4 mg/kg	Cmax [17]: 80 ng/mL; bioavailability (in vivo [20]): 10%; half-life (in vivo [22]): 1.1 h

Second part, the molecule before the results:

Structure (SMILES)	MIC [1]	MIC [3]	MIC (Enterococcus faecalis)	MIC [4]	MIC [5]	MIC [6]	MIC (Streptococcus pyogenes; [24])	MIC [7]	MIC [8]	MIC [9]	MIC [10, 25]	MIC [11]	MIC [12]	ED50 [15]	ED50 [18]	ED50 (Pseudomonas aeruginosa)	ED50 [19]	ED50 [21]	CC50 [2]	ED50 [16]	further results
Cc1c(N2C[C@@H](N)[C@@H](C)C2)c(F)cn2c(=O)c(C(=O)O)cc(C3CC3)c12	0.02 µg/mL (≈ 0.0556 µM)	0.005 µg/mL (≈ 0.0139 µM)		0.05 µg/mL (≈ 0.139 µM)	0.02 µg/mL (≈ 0.0556 µM)	0.02 µg/mL (≈ 0.0556 µM)	0.05 µg/mL (≈ 0.139 µM)	0.78 µg/mL (≈ 2.17 µM)	0.02 µg/mL (≈ 0.0556 µM)	0.78 µg/mL (≈ 2.17 µM)	1.56 µg/mL (≈ 4.34 µM)	0.005 µg/mL (≈ 0.0139 µM)	0.1 µg/mL (≈ 0.278 µM)						0.06 µg/mL (≈ 0.167 µM)		Cmax [17]: 170 ng/mL; bioavailability (in vivo [20]): 23%; half-life (in vivo [22]): 2.1 h
Cc1c(N2C[C@H]3CCCN[C@H]3C2)c(F)cn2c(=O)c(C(=O)O)cc(C3CC3)c12 (single isomer, unassigned)	0.05 µg/mL (≈ 0.13 µM)	0.005 µg/mL (≈ 0.013 µM)		0.1 µg/mL (≈ 0.259 µM)	0.05 µg/mL (≈ 0.13 µM)	0.05 µg/mL (≈ 0.13 µM)	0.05 µg/mL (≈ 0.13 µM)	0.78 µg/mL (≈ 2.02 µM)	0.05 µg/mL (≈ 0.13 µM)	1.56 µg/mL (≈ 4.05 µM)	12.5 µg/mL (≈ 32.4 µM)	0.05 µg/mL (≈ 0.13 µM)	0.78 µg/mL (≈ 2.02 µM)	29.3 mg/kg		> 50 mg/kg	> 1 mg/kg	6.1 mg/kg		> 8 mg/kg	ED50 (Streptococcus pneumoniae [14]; [26]): 32.2 mg/kg; ED50 (Streptococcus pneumoniae [23]; [26]): > 8 mg/kg
Cc1c(N2C[C@@H]3CCCN[C@@H]3C2)c(F)cn2c(=O)c(C(=O)O)cc(C3CC3)c12 (stereo in doubt; (S,S)45n)											3.1 µg/mL (≈ 8.04 µM)		0.2 µg/mL (≈ 0.519 µM)							> 8 mg/kg	ED50 (Streptococcus pneumoniae [14]): 3.6 mg/kg; MIC (Streptococcus pyogenes): 0.05 µg/mL (≈ 0.13 µM); ED50 (Streptococcus pneumoniae [23]; [26]): 2.2 mg/kg
Cc1c(N2CC[C@@H]([C@H](C)N)C2)c(F)cn2c(=O)c(C(=O)O)cc(C3CC3)c12	0.01 µg/mL (≈ 0.0268 µM)	0.005 µg/mL (≈ 0.0134 µM)		< 0.001 µg/mL	< 0.001 µg/mL	< 0.001 µg/mL	< 0.001 µg/mL	0.05 µg/mL (≈ 0.134 µM)	< 0.001 µg/mL	0.2 µg/mL (≈ 0.536 µM)	1.56 µg/mL (≈ 4.18 µM)	< 0.001 µg/mL	0.05 µg/mL (≈ 0.134 µM)	7.2 mg/kg	3.3 mg/kg	13 mg/kg	0.5 mg/kg	< 0.2 mg/kg	0.3 µg/mL (≈ 0.803 µM)	1 mg/kg	ED50 (Streptococcus pneumoniae [14]): < 3.1 mg/kg; ED50 (Streptococcus pneumoniae [23]): < 1.3 mg/kg
Cc1c(N2CCC(N)C2)c(F)cn2c(=O)c(C(=O)O)cc(C3CC3)c12 (configuration not stated)	0.005 µg/mL (≈ 0.0145 µM)	0.002 µg/mL (≈ 0.00579 µM)		0.02 µg/mL (≈ 0.0579 µM)	0.01 µg/mL (≈ 0.029 µM)	0.01 µg/mL (≈ 0.029 µM)	0.02 µg/mL (≈ 0.0579 µM)	1.56 µg/mL (≈ 4.52 µM)	0.02 µg/mL (≈ 0.0579 µM)	0.2 µg/mL (≈ 0.579 µM)	0.78 µg/mL (≈ 2.26 µM)	0.002 µg/mL (≈ 0.00579 µM)	0.05 µg/mL (≈ 0.145 µM)	4.1 mg/kg	< 0.3 mg/kg	4.6 mg/kg	0.4 mg/kg	1 mg/kg	0.05 µg/mL (≈ 0.145 µM)	0.5 mg/kg	ED50 (Streptococcus pneumoniae [13]): 6.2 mg/kg; ED50 (Streptococcus pneumoniae [14]; [26]): 12.5 mg/kg
